Assay results reported in article PMC8716817 (Frontiers in Pharmacology, 2021).

Experiments:
NaV1.7 = biological target: T1, NaV1.7 (Rattus norvegicus, UniProt O08562); experiment: whole-cell patch clamp, stable NaV1.[…] HEK cells (vincristine pre-incubated); assay type: cell-based
T1 construct: gene Scn9a

NaV1.8 = biological target: T2, NaV1.8 (Rattus norvegicus, UniProt Q62968); assay type: cell-based
T2 construct: gene Scn10a
T2 sequence (Q62968 whole entry): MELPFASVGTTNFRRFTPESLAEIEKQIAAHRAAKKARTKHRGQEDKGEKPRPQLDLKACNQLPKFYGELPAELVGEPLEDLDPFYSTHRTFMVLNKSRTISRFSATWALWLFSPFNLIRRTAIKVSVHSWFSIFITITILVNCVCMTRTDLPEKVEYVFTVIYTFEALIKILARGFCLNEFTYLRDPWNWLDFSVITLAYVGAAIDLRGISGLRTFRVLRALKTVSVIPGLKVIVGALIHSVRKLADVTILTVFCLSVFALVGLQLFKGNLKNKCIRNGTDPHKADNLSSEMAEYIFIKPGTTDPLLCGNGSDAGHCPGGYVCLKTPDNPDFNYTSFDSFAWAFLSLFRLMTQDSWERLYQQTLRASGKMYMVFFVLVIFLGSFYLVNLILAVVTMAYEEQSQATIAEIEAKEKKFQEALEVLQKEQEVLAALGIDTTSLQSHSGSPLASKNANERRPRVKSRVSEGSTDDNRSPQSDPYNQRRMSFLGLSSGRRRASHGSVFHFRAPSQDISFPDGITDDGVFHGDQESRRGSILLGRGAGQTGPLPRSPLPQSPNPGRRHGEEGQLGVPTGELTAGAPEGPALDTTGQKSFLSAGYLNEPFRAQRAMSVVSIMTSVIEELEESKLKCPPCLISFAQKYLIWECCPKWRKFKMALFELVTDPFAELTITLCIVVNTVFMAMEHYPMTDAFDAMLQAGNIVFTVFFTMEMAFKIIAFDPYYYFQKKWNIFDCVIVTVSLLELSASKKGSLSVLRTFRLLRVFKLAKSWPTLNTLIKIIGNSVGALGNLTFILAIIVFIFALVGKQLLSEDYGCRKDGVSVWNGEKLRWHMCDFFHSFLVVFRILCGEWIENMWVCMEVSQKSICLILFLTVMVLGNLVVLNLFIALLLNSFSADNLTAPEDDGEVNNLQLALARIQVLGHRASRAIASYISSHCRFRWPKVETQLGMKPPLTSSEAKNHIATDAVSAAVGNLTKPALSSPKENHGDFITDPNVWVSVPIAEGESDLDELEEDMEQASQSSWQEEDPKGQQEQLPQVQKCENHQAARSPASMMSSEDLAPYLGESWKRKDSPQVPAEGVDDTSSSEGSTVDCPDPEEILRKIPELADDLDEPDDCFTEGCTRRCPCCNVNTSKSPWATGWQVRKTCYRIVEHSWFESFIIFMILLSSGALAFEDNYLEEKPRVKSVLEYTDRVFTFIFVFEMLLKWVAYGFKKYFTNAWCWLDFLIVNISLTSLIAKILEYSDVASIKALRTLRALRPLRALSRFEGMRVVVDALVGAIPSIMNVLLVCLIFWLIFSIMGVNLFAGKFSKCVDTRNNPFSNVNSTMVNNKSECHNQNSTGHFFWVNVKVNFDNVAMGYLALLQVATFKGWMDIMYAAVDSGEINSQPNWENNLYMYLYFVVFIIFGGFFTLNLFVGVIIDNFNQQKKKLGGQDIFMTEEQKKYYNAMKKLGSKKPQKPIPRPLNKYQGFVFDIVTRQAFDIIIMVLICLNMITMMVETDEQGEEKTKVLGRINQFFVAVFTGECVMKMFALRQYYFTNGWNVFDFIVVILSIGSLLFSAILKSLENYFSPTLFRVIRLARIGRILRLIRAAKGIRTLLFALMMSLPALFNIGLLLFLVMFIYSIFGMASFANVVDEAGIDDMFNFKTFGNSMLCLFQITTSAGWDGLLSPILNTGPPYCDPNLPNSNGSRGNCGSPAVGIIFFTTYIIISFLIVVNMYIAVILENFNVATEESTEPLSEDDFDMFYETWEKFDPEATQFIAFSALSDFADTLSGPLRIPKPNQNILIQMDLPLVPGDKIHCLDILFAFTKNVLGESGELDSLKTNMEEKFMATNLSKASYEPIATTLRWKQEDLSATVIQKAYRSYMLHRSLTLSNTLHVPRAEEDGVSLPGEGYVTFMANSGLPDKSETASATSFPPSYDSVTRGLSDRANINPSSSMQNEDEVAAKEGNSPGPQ

T1 sequence (O08562 whole entry): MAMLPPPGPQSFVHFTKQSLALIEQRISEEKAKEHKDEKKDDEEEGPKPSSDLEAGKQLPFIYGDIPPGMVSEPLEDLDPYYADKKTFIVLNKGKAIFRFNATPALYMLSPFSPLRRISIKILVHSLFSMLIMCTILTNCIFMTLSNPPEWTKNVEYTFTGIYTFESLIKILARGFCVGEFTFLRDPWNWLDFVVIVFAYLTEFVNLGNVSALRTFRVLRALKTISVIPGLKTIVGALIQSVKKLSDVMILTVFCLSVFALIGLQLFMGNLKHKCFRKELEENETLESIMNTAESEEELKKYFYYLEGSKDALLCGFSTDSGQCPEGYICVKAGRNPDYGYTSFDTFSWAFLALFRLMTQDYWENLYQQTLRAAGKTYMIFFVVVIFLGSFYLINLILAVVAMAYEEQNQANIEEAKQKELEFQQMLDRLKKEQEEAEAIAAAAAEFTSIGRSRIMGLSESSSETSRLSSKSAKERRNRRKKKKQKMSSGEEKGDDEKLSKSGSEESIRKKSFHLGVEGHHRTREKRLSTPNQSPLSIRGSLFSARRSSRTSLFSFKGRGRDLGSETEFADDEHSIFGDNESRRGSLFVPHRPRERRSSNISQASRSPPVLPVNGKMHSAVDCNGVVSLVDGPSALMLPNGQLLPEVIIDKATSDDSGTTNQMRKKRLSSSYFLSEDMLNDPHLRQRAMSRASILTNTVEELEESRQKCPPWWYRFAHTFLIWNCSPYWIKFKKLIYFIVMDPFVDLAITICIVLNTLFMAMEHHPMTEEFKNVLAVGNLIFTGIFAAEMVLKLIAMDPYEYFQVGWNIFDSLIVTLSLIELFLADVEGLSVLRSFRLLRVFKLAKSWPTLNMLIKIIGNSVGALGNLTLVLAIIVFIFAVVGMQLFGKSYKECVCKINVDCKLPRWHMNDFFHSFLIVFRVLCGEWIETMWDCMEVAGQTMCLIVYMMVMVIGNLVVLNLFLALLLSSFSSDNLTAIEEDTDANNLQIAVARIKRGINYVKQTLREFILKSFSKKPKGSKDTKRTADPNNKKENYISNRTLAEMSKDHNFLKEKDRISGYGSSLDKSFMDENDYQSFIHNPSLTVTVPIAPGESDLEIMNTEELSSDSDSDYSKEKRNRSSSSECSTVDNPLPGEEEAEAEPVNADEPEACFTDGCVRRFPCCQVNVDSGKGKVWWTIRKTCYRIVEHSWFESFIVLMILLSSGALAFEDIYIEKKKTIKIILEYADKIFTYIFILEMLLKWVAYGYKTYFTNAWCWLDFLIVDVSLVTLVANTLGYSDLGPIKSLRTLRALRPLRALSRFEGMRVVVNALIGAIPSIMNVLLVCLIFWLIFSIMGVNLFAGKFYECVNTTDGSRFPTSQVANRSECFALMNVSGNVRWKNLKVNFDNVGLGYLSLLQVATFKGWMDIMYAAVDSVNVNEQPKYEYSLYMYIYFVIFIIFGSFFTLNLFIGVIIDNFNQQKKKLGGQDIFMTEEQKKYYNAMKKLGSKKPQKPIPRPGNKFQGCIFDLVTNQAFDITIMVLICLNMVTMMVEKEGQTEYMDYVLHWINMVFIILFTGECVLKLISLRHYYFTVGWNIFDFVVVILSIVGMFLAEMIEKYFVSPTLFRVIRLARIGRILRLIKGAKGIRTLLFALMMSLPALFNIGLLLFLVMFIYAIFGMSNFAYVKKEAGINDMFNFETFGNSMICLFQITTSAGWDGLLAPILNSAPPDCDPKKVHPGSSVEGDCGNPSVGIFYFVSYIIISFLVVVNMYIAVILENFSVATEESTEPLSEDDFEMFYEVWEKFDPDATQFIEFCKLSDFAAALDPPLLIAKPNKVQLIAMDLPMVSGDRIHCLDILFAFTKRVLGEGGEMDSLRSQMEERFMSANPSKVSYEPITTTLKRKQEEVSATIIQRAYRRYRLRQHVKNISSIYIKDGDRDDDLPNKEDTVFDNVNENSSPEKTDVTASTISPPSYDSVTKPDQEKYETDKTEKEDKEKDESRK

OCc1ccc(O[C@@H]2O[C@H](CO)[C@@H](O)[C@H](O)[C@H]2O)cc1 [GAS, Gastrodin]
IC50 (NaV1.7): 25.9 ± 0.98 µM
IC50 (NaV1.8): 67.5 ± 20.7 µM
